Laboratory results from US9056091B1, “Composition for regulation of liver X receptor” (National Taiwan University, priority 2014, dated 2015).

Columns and labels:
hLXRβ = target: T1, hLXRβ (Homo sapiens, UniProt P55055); assay: LXRβ transactivation activity, GAL4-hLXRβ LBD / (UAS)4-alkaline phosphatase reporter, transient transfection in CHO-K1 cells; type: cell-based; details: for LXRβ transactivation activity, % of GW3965: co-treated with LXR agonist GW3965 (0.5 μM); for LXRβ transactivation activity, % of GW3965 / LXRβ transactivation activity, % of the positive control GW3965: 48 hours; for Enhancing effect (LXRβ), ↑ percentage: sample alone, relative to positive control; for Antagonistic effect (LXRβ), ↓ percentage: against LXR agonist (GW3965)
T1 construct: expressed in transfected cells; host or cells: CHO-K1 (Chinese hamster ovary), transient transfection with pBKCMV GAL4-hLXRβ
T1 sequence (P55055 222-460 limits assumed): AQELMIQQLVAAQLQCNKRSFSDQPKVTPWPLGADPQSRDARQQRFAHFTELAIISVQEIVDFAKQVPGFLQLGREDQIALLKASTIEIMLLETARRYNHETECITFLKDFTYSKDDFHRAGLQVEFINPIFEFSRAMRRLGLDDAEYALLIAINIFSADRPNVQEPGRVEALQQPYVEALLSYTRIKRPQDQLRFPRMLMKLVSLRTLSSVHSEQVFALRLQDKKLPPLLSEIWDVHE
Source text: (§1) For the evaluation of LXR transactivation activity, the embodiments of the present invention utilize transient transfection and the vectors used are: (1) pBKCMV GAL4-hLXRα and pBKCMV GAL4-hLXRβ; (2) pBKCMV (UAS)4-alkaline phosphatase, wherein pBKCMV GAL4-hLXRα and pBKCMV GAL4-hLXRβ are pBKCMV vectors having chimeric receptor of GAL4-hLXRα ligand binding doman (LBD) and GAL4-hLXRβ LBD, while pBKCMV (UAS)4-alkaline phosphatase is the pBKCMV vector having the reporter gene of (UAS)4 alkaline phosphatase (ALP). UAS indicates upstream activation sequence. All vectors were co-transfected into Chinese hamster ovary cell (CHO-K1, from Bioresource Collection and Research Center of Food Industry Research and Development Institute, BCRC: 6006).
(§2) Transient transfection of the embodiments of the present invention was performed using Lipofectamin 2000 (Invitrogen). Firstly, after CHO-K1 cells were fully grown, cells were dis-attached by trpsin-EDTA solution and were eluted using 10% CSF-Ham's F-12, wherein CSF represents the FBS pretreated by charcoal (Dextran coated, Sigma, C6231). The cell suspension was diluted to 2.5×10^5 cells/mL, planted onto 96-well plate (100 μL/well), and incubated for 20 to 24 hours at 37° C. with 5% CO2.
(§3) Detailed steps for transfection are as follow: Lipofectamine 2000 was diluted in PS tubes by serum-free OPTI-MEM®I (GIBCO, 31985) for 5 minutes at room temperature; the vector DNA was diluted by a small amount of serum-free OPTI-MEM®I; the vectors in Table 2 were mixed with Lipofectamine 2000 with specific ratio (GAL4-hLXRα:(UAS)4-ALP=4:1; GAL4-hLXRβ:(UAS)4-ALP=4:1) and reacted for 20 minutes at room temperature. During the reaction, the cells were washed by serum-free Ham's F-12 medium (100 μL/well) twice to allow the formation of DNA-liposome complex; the vectors were then added to the above washed cells for transfection to take place at 37° C. and 5% CO2. Solution for transfection was removed after the transient transfection was completed.
(§4) The ALP activity analysis was performed by reacting the culture medium (20 μL/well) and reactant (100 mM pNPP:H2O:2X SEAP assay buffer=1:9:10, 200 μL/well) in a new 96-well plate for 15 minutes at 37° C. The absorbance at 405 nm was measured using microspectrometer.
Cells after the abovementioned transient transfection and removing the transfection solution were added to fucoxanthin and fucoxanthinol diluted with 10% TCM-Ham's F-12, LXR agonist GW3965 (3-[3-[[[2-Chloro-3-trifluoromethyl)-phenyl]methyl](2,2-diphenyl-ethyl)amino]-propoxy]benzeneacetic acid), or none, to serve as experimental group, positive control, or vehicle, respectively. The ALP activities of all groups were analysis after incubation for 48 hours at 37° C. with 5% CO2. Same method for ALP analysis applied as describe in Example 2.

hLXRα = target: T2, hLXRα (Homo sapiens, UniProt Q13133); assay: LXRα transactivation activity, GAL4-hLXRα LBD / (UAS)4-alkaline phosphatase reporter, transient transfection in CHO-K1 cells; type: cell-based; design: key to Enhancing effect (LXRα): “—” indicates no significant effect; details: for LXRα transactivation activity, % of T0901317: co-treated with LXR agonist T0901317 (0.5 μM); for LXRα transactivation activity, % of T0901317 / LXRα transactivation activity: 48 hours; for Antagonistic effect (LXRα), ↓ percentage: against LXR agonist (T0901317); for LXRα transactivation activity: sample alone at 1, 5, and 10 μM, p>0.05 vs vehicle; for Enhancing effect (LXRα): sample alone, enhancing percentage relative to positive control
T2 construct: expressed in transfected cells; host or cells: CHO-K1 (Chinese hamster ovary), transient transfection with pBKCMV GAL4-hLXRα
T2 sequence (Q13133 209-447 limits assumed): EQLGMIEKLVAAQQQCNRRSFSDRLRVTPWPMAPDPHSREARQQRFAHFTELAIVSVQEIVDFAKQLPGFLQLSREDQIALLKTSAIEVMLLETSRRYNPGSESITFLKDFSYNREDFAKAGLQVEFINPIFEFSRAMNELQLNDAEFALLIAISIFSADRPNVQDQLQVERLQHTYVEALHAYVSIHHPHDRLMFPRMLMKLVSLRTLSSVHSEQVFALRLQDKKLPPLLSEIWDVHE
Source text: as §1, §2, §3
Cells after transient transfection in Example 1 and removing the transfection solution were added to fucoxanthin and fucoxanthinol diluted with 10% TCM-Ham's F-12, LXR agonist T0901317, or none, to serve as experimental group, positive control, or vehicle, respectively. The ALP activities of all groups were analysis after incubation for 48 hours at 37° C. with 5% CO2.
as §4

Row | LXRβ transactivation activity, % of GW3965 (hLXRβ; 1 μM) | Enhancing effect (LXRβ), ↑ percentage (hLXRβ; 1 μM) | LXRβ transactivation activity, % of GW3965 (hLXRβ; 5 μM) | Antagonistic effect (LXRβ), ↓ percentage (hLXRβ; 10 μM) | LXRβ transactivation activity, % of GW3965 (hLXRβ; 10 μM) | LXRβ transactivation activity, % of the positive control GW3965 (hLXRβ; sample alone at 1 μM) | LXRβ transactivation activity, % of the positive control GW3965 (hLXRβ; sample alone at 5 μM) | LXRα transactivation activity, % of T0901317 (hLXRα; 5 μM) | Antagonistic effect (LXRα), ↓ percentage (hLXRα; 10 μM) | LXRα transactivation activity, % of T0901317 (hLXRα; 10 μM) | Enhancing effect (LXRα) (hLXRα) | Enhancing effect (LXRβ), ↑ percentage (hLXRβ; 10 μM) | LXRβ transactivation activity, % of the positive control GW3965 (hLXRβ; sample alone at 10 μM) | Compound | LXRα transactivation activity (hLXRα)
1 | 79% | ↑3% | 62% | ↓64% | 36% | approximately 3% | approximately 2% | 48% | ↓80% | 20% | — |  |  | C\C(C=C=C1C(C)(C)C[C@H](O)C[C@@]1(C)O)=C/C=C/C(C)=C/C=C/C=C(C)/C=C/C=C(\C)C(=O)C[C@@]12O[C@]1(C)C[C@@H](O)CC2(C)C [fucoxanthinol] | no significant LXRα transactivation activities
2 |  |  | 69% | ↓49% | 51% |  |  | 76% | ↓59% | 41% | — | ↑2% | approximately 2% | fucoxanthin | no significant LXRα transactivation activities
